Patent US20230303570A1, “KINASE INHIBITORS AND USES THEREOF” (ABM Therapeutics Corporation, priority 2020, published 2023)

What was measured:
PAK1 = PAK1 (Homo sapiens, UniProt Q13153); assay: In vitro kinase assay, PAK1 (Caliper EZ Reader conversion); type: biochemical; parameters: purchased Carna Biosciences
How it was run: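 Human PAK1 was preincubated with compound (6 concentrations, 4-fold dilutions) for 10 min at room temperature, then reacted with substrate mix for 30 and 60 min. Substrate conversion was read by Caliper mobility shift. IC50 was fitted by variable-slope log(inhibitor)–response, normalised to FRAX597 and buffer controls.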

c-Kit = c-Kit (Homo sapiens, UniProt P10721); assay: cKit kinase mobility shift assay; type: biochemical
Method: (§1) The effect of the compounds on the activity of cKit, RET and AXL kinases were assessed by Mobility shift assay. • 1. 1× kinase base buffer and stop buffer for testing kinases were prepared • 1-1) 1× Kinase base buffer (50 mM HEPES, pH 7.5, 0.01% Triton X-100) • 1-2) Stop buffer (100 mM HEPES, pH 7.5, 0.015% Brij-35, 0.2% Coating Reagent #3, 50 mM EDTA) • 2. Compound and assay plate preparation: the compound was diluted to 50× of the final desired highest inhibitor concentration in reaction by 100% DMSO. 100 μl of this compound dilution was transferred to a well in a 96-well plate. For example, if the highest desired concentration was 5 μM, then 250 μM of compound DMSO solution was prepared in this step. For all compounds, the compound was serially diluted by transferring 10 μl to 70 μl of 100 DMSO in the next well and so forth for a total of 5 concentrations. 100 μl of 100% DMSO was added to two empty wells for no compound control and no enzyme control in the same 96-well plate. The plate was labeled as source plate. The intermediate plate was prepared by transferring 10 μl of compound from source plate to a new 96-well plate as the intermediate plate, adding 90 μl of 1× kinase buffer to each well of the intermediate plate, mixing the compounds in intermediate plate for 10 min on shaker. 5 μl of each well from the 96-well intermediate plate were transferred to a 384-well plate in duplicates. For example, A1 of the 96-well plate was transferred to A1 and A2 of the 384-well plate. A2 of the 96-well plate was transferred to A3 and A4 of the 384-well plate, and so on. • 4. Kinase reaction: The assay plate already contained 5 μl of compound in 10% DMSO. A 2.5× enzyme solution was prepared by adding kinases (cKit, RET, or AXL) and DTT in 1× kinase base buffer. 2.5× enzyme solution was transferred to the assay plate (by adding 10 μl of 2.5× enzyme solution to each well of the 384-well assay plate). The plate was incubated at room temperature for 10 min. 2.5× peptide solution was prepared by adding FAM-labeled peptide, ATP, MgCl2 in the 1× kinase base buffer. 2.5× peptide solution was added to the assay plate by adding 10 μl of 2.5× peptide solution to each well of the 384-well assay plate. The plate was incubated at 28° C. for the specified period of time. 25 μl of stop buffer was added to stop reaction. Data was collected on Caliper.

[1] = Mouse pharmacokinetics study (intravenous and oral); type: in vivo; conditions: CD-1 mice
Source text: The test articles were formulated in […] Hydroxypropyl-beta-cyclodextrin, either as a clear solution or fine suspension.

HPK1 (MAP4K1) = HPK1 (MAP4K1) (Homo sapiens, UniProt Q92918); assay: HPK1 (MAP4K1) kinase Lantha screen assay; type: biochemical
How it was run: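 Recombinant MAP4K1 preincubated 10 min with compound (6-point dilution, duplicates) in 50 mM HEPES pH 7.5, 10 mM MgCl2, then reacted with Fluorescein-PKC substrate and ATP for 90 min at room temperature. Antibody detection solution stopped reaction; after 60 min, TR-FRET read at ex 340 nm, em 520/495 nm.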

Axl = target: T1, Axl (Homo sapiens, UniProt P30530); assay: AXL kinase mobility shift assay; type: biochemical
T1 sequence (P30530 26-894): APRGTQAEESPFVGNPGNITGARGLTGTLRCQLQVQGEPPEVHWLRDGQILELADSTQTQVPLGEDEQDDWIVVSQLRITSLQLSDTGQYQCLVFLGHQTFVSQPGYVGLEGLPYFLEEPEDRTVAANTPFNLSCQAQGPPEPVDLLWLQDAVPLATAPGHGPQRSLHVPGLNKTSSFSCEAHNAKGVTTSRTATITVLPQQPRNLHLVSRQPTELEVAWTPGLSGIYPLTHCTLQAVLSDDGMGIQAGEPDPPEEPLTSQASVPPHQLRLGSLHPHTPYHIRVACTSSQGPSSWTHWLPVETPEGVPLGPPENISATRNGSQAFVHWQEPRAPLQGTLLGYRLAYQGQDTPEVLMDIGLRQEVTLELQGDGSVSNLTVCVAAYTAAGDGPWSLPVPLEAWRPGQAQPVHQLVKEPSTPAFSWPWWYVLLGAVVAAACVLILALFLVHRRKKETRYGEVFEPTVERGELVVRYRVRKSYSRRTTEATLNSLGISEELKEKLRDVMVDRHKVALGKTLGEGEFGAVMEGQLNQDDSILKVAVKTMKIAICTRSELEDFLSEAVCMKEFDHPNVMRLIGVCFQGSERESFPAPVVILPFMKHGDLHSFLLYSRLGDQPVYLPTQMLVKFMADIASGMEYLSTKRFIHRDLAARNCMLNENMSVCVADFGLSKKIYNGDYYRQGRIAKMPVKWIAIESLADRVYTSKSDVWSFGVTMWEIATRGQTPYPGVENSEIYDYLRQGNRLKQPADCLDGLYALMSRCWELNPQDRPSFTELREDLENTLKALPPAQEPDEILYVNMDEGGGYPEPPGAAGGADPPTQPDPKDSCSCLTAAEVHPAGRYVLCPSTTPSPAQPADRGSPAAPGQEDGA
Method: as §1

HPK1 (MAP4K1), sequence (Q92918 whole entry, species assumed): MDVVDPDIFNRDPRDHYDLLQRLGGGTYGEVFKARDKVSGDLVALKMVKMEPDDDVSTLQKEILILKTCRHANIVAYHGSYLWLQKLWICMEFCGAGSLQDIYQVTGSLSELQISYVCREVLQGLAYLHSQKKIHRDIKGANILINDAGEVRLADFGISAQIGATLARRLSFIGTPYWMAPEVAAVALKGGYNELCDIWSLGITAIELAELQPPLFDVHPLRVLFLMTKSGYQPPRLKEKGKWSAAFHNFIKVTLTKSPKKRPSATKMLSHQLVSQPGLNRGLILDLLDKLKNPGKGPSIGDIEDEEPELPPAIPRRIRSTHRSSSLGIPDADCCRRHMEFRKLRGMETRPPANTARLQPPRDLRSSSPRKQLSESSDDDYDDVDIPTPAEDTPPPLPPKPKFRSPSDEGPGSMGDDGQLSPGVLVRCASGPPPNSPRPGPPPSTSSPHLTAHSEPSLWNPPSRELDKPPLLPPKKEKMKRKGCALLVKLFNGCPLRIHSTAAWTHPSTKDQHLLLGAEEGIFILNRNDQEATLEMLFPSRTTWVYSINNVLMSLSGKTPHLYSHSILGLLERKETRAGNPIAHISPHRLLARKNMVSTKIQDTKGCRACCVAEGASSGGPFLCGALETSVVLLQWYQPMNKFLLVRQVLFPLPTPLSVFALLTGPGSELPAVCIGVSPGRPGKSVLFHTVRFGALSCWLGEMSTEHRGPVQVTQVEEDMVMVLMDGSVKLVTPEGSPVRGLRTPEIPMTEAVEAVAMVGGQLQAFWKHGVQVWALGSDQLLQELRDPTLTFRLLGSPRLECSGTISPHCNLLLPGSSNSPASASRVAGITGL
c-Kit, sequence (P10721 26-976): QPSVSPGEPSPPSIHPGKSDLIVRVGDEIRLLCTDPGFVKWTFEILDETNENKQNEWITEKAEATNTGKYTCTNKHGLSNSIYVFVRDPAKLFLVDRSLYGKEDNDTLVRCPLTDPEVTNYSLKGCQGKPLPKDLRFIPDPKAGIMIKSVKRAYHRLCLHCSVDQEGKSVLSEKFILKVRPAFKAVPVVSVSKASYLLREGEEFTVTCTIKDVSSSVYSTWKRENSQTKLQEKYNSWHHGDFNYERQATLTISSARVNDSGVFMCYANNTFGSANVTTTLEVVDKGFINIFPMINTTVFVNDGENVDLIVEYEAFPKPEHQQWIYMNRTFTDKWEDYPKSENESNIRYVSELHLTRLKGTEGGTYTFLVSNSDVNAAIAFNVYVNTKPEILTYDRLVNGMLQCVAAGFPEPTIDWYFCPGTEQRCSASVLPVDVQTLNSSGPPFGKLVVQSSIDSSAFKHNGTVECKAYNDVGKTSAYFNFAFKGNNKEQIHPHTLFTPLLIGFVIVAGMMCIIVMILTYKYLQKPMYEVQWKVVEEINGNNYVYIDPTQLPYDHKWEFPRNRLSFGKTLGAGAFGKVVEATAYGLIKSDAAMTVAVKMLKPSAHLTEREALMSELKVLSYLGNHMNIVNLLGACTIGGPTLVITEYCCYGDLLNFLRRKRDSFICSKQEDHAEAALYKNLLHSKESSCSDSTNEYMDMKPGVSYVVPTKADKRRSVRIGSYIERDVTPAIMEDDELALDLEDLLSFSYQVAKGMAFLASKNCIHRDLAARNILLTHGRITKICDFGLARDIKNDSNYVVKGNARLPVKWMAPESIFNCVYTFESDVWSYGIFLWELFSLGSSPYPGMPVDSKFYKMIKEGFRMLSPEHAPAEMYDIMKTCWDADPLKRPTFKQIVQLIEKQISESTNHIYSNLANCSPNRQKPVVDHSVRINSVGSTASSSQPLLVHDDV
PAK1, sequence (Q13153 whole entry): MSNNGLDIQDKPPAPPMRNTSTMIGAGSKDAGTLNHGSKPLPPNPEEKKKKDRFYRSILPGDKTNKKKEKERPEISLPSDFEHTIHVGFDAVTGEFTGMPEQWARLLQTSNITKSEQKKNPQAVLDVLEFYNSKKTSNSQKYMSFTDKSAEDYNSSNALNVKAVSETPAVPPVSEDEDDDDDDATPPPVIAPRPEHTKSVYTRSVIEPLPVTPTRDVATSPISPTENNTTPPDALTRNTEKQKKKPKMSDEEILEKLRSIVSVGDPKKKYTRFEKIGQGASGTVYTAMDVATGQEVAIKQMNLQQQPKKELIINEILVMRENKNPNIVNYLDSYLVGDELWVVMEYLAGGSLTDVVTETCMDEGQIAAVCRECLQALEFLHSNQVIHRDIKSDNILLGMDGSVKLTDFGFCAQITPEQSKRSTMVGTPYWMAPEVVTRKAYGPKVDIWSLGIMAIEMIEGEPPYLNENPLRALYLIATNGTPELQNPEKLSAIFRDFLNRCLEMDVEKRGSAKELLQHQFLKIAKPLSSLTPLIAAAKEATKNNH

IC50 (c-Kit) [nM]	IC50 (HPK1 (MAP4K1)) [nM]	IC50 (Axl) [nM]	SMILES	also measured
100 to 10000	–	–	CN1CCN(c2ccc(Nc3ncc4c(n3)N3CCN=C3C(c3ccccc3Cl)=C4)cn2)CC1 [Compound 92, 6-(2-chlorophenyl)-N-(6-(4-methylpiperazin-1-yl)pyridin-3-yl)-8,9-dihydroimidazo[1′,2′:1,6]pyrido[2,3-d]pyrimidin-2-amine]	IC50 (PAK1): 100 to 10000 nM
100 to 10000	< 100	–	Cc1cc(F)c(NC(=O)c2cc(C(F)(F)F)ccn2)cc1C1=Cc2cnc(NC3COC3)nc2N2CCN=C12 [Compound 178, N-(2-fluoro-4-methyl-5-(2-(oxetan-3-ylamino)-8,9-dihydroimidazo[1′,2′:1,6]pyrido[2,3-d]pyrimidin-6-yl)phenyl)-4-(trifluoromethyl)picolinamide]	F ([1]; PO 25 mg/kg): 66.7 ± 14.3%; Vd ([1]; mouse, plasma, IV 5 mg/kg): 4.06 ± 0.37 L/kg; half-life ([1]; mouse, plasma, IV 5 mg/kg): 2.76 ± 0.22 h; clearance ([1]; mouse, plasma, IV 5 mg/kg, read-out: Clp): 17 ± 0.3 mL/min/kg; AUC ([1]; mouse, plasma, PO 25 mg/kg): 16300 ± 3490 ng·h/mL; Cmax ([1]; mouse, plasma, PO 25 mg/kg): 2560 ± 505 ng/mL; Tmax ([1]; mouse, plasma, PO 25 mg/kg): 2 h
< 100	< 100	–	Cc1ccc(NC(=O)c2cc(C(F)(F)F)ccn2)cc1C1=Cc2cnc(Nc3cnn(C)c3)nc2N2CCN=C12 [Compound 195, N-(4-methyl-3-(2-((1-methyl-1H-pyrazol-4-yl)amino)-8,9-dihydroimidazo[1′,2′:1,6]pyrido[2,3-d]pyrimidin-6-yl)phenyl)-4-(trifluoromethyl)picolinamide]	–
< 100	–	–	Cc1ccc(NC(=O)c2cc(C(C)(C)F)ccn2)cc1C1=Cc2cnc(Nc3cnn(C)c3)nc2N2CCN=C12 [Compound 196, 4-(2-fluoropropan-2-yl)-N-(4-methyl-3-(2-((1-methyl-1H-pyrazol-4-yl)amino)-8,9-dihydroimidazo[1′,2′:1,6]pyrido[2,3-d]pyrimidin-6-yl)phenyl)picolinamide]	AUC ([1]; mouse, plasma, PO 25 mg/kg): 11300 ± 3010 ng·h/mL; Cmax ([1]; mouse, plasma, PO 25 mg/kg): 1060 ± 108 ng/mL; Tmax ([1]; mouse, plasma, PO 25 mg/kg): 1.33 ± 0.58 h
< 100	< 100	–	Cc1ccc(NC(=O)c2cc(C(F)(F)F)ccn2)cc1C1=Cc2cnc(Nc3cccc(CO)c3)nc2N2CCN=C12 [Compound 229, N-(3-(2-((3-(hydroxymethyl)phenyl)amino)-8,9-dihydroimidazo[1′,2′:1,6]pyrido[2,3-d]pyrimidin-6-yl)-4-methylphenyl)-4-(trifluoromethyl)picolinamide]	–
–	–	> 10000	Cc1ccc(Nc2ncc3c(n2)N2CCN=C2C(c2cc(NC(=O)c4cn(C(C)C)c(=O)n(-c5ccc(F)cc5)c4=O)ccc2C)=C3)cn1 [Compound 266, 3-(4-fluorophenyl)-1-isopropyl-N-(4-methyl-3-(2-((6-methylpyridin-3-yl)amino)-8,9-dihydroimidazo[1′,2′:1,6]pyrido[2,3-d]pyrimidin-6-yl)phenyl)-2,4-dioxo-1,2,3,4-tetrahydropyrimidine-5-carboxamide]	–
–	–	> 10000	CNc1ncc2c(n1)N1CCN=C1C(c1ccc(C(=O)Nc3cc(C(F)(F)F)ccn3)c(F)c1)=C2 [Compound 270, 2-fluoro-4-(2-(methylamino)-8,9-dihydroimidazo[1′,2′:1,6]pyrido[2,3-d]pyrimidin-6-yl)-N-(4-(trifluoromethyl)pyridin-2-yl)benzamide]	–
–	–	100 to 10000	CNc1ncc2c(n1)N1CCN=C1C(c1ccc(C(=O)Nc3cc(C(F)(F)F)ccn3)cc1)=C2 [Compound 273, 4-(2-(methylamino)-8,9-dihydroimidazo[1′,2′:1,6]pyrido[2,3-d]pyrimidin-6-yl)-N-(4-(trifluoromethyl)pyridin-2-yl)benzamide]	–
–	–	100 to 10000	CNc1ncc2c(n1)N1CCN=C1C(c1ccc(C(=O)Nc3ccccc3Cl)cc1)=C2 [Compound 275, N-(2-chlorophenyl)-4-(2-(methylamino)-8,9-dihydroimidazo[1′,2′:1,6]pyrido[2,3-d]pyrimidin-6-yl)benzamide]	–
–	–	> 10000	CNc1ncc2c(n1)N1CCN=C1C(c1cc(NS(=O)(=O)c3ccccc3Cl)c(F)cc1C)=C2 [Compound 286, 2-chloro-N-(2-fluoro-4-methyl-5-(2-(methylamino)-8,9-dihydroimidazo[1′,2′:1,6]pyrido[2,3-d]pyrimidin-6-yl)phenyl)benzenesulfonamide]	–
100 to 10000	> 10000	–	CNc1ncc2c(n1)N1CCN=C1C(c1cc(NC(=O)NCCC(F)(F)F)c(F)cc1C)=C2 [Compound 316, 1-(2-fluoro-4-methyl-5-(2-(methylamino)-8,9-dihydroimidazo[1′,2′:1,6]pyrido[2,3-d]pyrimidin-6-yl)phenyl)-3-(3,3,3-trifluoropropyl)urea]	–
< 100	100 to 10000	–	CNc1ncc2c(n1)N1CCN=C1C(c1cc(NC(=O)NCCC(C)(C)C)c(F)cc1C)=C2 [Compound 317, 1-(3,3-dimethylbutyl)-3-(2-fluoro-4-methyl-5-(2-(methylamino)-8,9-dihydroimidazo[1′,2′:1,6]pyrido[2,3-d]pyrimidin-6-yl)phenyl)urea]	–
< 100	100 to 10000	–	CNc1ncc2c(n1)N1CCN=C1C(c1cc(NC(=O)Nc3ccccc3Cl)c(F)cc1C)=C2 [Compound 331, 1-(2-chlorophenyl)-3-(2-fluoro-4-methyl-5-(2-(methylamino)-8,9-dihydroimidazo[1′,2′:1,6]pyrido[2,3-d]pyrimidin-6-yl)phenyl)urea]	–
< 100	–	–	CNc1ncc2c(n1)N1CCN=C1C(c1cc(NC(=O)Nc3ccccc3F)c(Cl)cc1C)=C2 [Compound 334, 1-(2-chloro-4-methyl-5-(2-(methylamino)-8,9-dihydroimidazo[1′,2′:1,6]pyrido[2,3-d]pyrimidin-6-yl)phenyl)-3-(2-fluorophenyl)urea]	–
< 100	–	–	CNc1ncc2c(n1)N1CCN=C1C(c1cc(NC(=O)Nc3ccc(Cl)cc3F)c(F)cc1C)=C2 [Compound 337, 1-(4-chloro-2-fluorophenyl)-3-(2-fluoro-4-methyl-5-(2-(methylamino)-8,9-dihydroimidazo[1′,2′:1,6]pyrido[2,3-d]pyrimidin-6-yl)phenyl)urea]	–
< 100	–	–	CNc1ncc2c(n1)N1CCN=C1C(c1cc(NC(=O)Nc3ccccc3F)c(F)cc1C)=C2 [Compound 338, 1-(2-fluoro-4-methyl-5-(2-(methylamino)-8,9-dihydroimidazo[1′,2′:1,6]pyrido[2,3-d]pyrimidin-6-yl)phenyl)-3-(2-fluorophenyl)urea]	–
